Laboratory results: publication PMC11093748, “De novo identification of CD4^+ T cell epitopes” (Nature Methods, 2024)

What was measured:
Test in all cases: I-Ag7 SABR-II library screen, enrichment score
Assay type in all cases: cell-based, mouse
TCR26 = settings: TCR_Mean minus PREDICTED_TCR (slope 0.971972, intercept 6.87806e-6 on LIB_Mean), TCR 26, run PZ56
Procedure, shortened: (§1)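 Read-out is Illumina read counts of SABR […] from sorted reporter cells (top 1–2% GFP⁺CD69⁺) after TCR⁺ Jurkat co-incubation with the I-Ag7 islet-epitope SABR-II library. Per-TCR scoring compares these counts with expected abundance derived from unsorted-library sequencing.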

TCR7 = test system: TCR7
Procedure, shortened: as §1

TCR40 = settings: I-Ag7 SABR-II library PZ101, CD4 TCR 40; TCR_Mean of 3 replicates minus PREDICTED_TCR (slope 0.959981, intercept 9.82052e-6)
Procedure, shortened: as §1

[1] = I-Ag7 library, one biological experiment
[2] = sheet TCR7-PZ47, ES = TCRObserved - TCRPredicted, TCRPredicted = LIBObserved x SLOPE + INTERCEPT, SLOPE 0.961246, INTERCEPT 9.5102e-6

Sequence: AAVEEGIVAGGGVTLL
- Enrichment score (TCR26): -0.0002176
- Enrichment score (TCR7; [1]): 1.142e-5
- Enrichment score (TCR7; [2]): 1.142e-5
- Enrichment score (TCR40): 6.713e-5

Sequence: AEKVRNLPAGHGLNAQ
- Enrichment score (TCR26): 4.292e-6
- Enrichment score (TCR7; [1]): 5.397e-5
- Enrichment score (TCR7; [2]): 5.397e-5
- Enrichment score (TCR40): -9.416e-5

Sequence: AGGVAVIKAGAATEV
- Enrichment score (TCR26): -8.754e-5
- Enrichment score (TCR7; [1]): -2.964e-5
- Enrichment score (TCR7; [2]): -2.964e-5
- Enrichment score (TCR40): 8.867e-6

Sequence: AKAAVEEGIVAGGGV
- Enrichment score (TCR26): -6.247e-5
- Enrichment score (TCR7; [1]): 0.0001251
- Enrichment score (TCR7; [2]): 0.0001251
- Enrichment score (TCR40): -1.429e-5

Sequence: ALVREGLRNVAAGANP
- Enrichment score (TCR26): -7.519e-6
- Enrichment score (TCR7; [1]): -9.699e-6
- Enrichment score (TCR7; [2]): -9.699e-6
- Enrichment score (TCR40): -9.821e-6
